Data published in patent US20100173919A1, “PHARMACEUTICAL COMPOSITION USING ALISKIREN AND AVOSENTAN” (priority 2006, published 2010).

Test system: double transgenic rats over-expressing both, the gene for human renin and the gene for human angiotensinogen
Assay: Urinary albumin excretion (albuminuria) in double transgenic rat model of malignant hypertension with renal complications
Assay type: in vivo
Description: An animal model for spontaneously malignant hypertension with renal complications is represented by double transgenic rats over-expressing both, the gene for human renin and the gene for human angiotensinogen. This double transgenic rat strain is produced by crossbreeding two transgenic strains, one for human angiotensinogen with the endogenous promoter and one for human renin with the endogenous promoter. Neither single transgenic strain is hypertensive. […] The fact that human renin can be studied in the rat is a unique feature of this model and allows the extrapolation to clinical high renin hypertension. […] Each agent can be tested over a wide range of dosages to determine the optimal drug level for each agent in combination to elicit the maximal response. Each study group is best performed in which the effects of the combination treatment group are determined at the same time as the individual components are evaluated. Although drug effects may be observed upon short term treatment, it is preferable to observe responses in a chronic setting as shown below in which experiments were done over a three to seven week observation period. The long-term duration study is of sufficient duration to allow for the full development of compensatory responses to occur and therefore, the observed effect will most likely depict the actual responses of the test system representing sustained or persistent effects. The combination therapy can be compared to that of the respective monotherapies by determining the maximum change in 24 hour urinary protein content at a given day. All values are represented as the group mean±standard error of the mean (SEM). Statistical significance is obtained when p<0.05. The albuminuria values for each of the treatment groups can be compared statistically using a one-way ANOVA followed by the appropriate post-hoc analysis, for example by performing a Bonferoni test. Four week old double transgenic rats were treated daily by oral gavage with SPP100/aliskiren at a dose of 10 mg/kg, SPP301/avosentan at doses of 10 and 30 mg/kg and combinations of SPP100/aliskiren with SPP301/avosentan at the same doses. After three, five and seven weeks of drug treatment, 24 hour urine samples are collected using metabolic cages. The urinary albumin content is measured by ELISA using a commercial kit ([…] GmbH, Luckenwalde, Germany).

SMILES | Albuminuria: mean ± SEM (SPP100 10 mg/kg daily oral gavage, Baseline, 24 h urine, ELISA) | Albuminuria: mean ± SEM (SPP100 10 mg/kg daily oral gavage, treatment week 3) | Albuminuria: mean ± SEM (SPP100 10 mg/kg daily oral gavage, treatment week 5) | Albuminuria: mean ± SEM (SPP100 10 mg/kg daily oral gavage, treatment week 7) | mean urinary albumin excretions (SPP100/aliskiren 10 mg/kg daily oral, after seven weeks of treatment) | Albuminuria: mean ± SEM (SPP301 10 mg/kg daily oral gavage, Baseline) | Albuminuria: mean ± SEM (SPP301 10 mg/kg daily oral gavage, treatment week 3) | Albuminuria: mean ± SEM (SPP301 10 mg/kg daily oral gavage, treatment week 5) | Albuminuria: mean ± SEM (SPP301 10 mg/kg daily oral gavage, treatment week 7) | Albuminuria: mean ± SEM (SPP301 30 mg/kg daily oral gavage, Baseline) | Albuminuria: mean ± SEM (SPP301 30 mg/kg daily oral gavage, treatment week 3) | Albuminuria: mean ± SEM (SPP301 30 mg/kg daily oral gavage, treatment week 5) | Albuminuria: mean ± SEM (SPP301 30 mg/kg daily oral gavage, treatment week 7) | urinary albumin contents (SPP301/avosentan at 10 or 30 mg/kg daily dosing)
COCCCOc1cc(C[C@@H](C[C@H](N)[C@@H](O)C[C@H](C(=O)NCC(C)(C)C(N)=O)C(C)C)C(C)C)ccc1OC [SPP100, aliskiren] | 469 ± 64 ug/24 h | 3046 ± 734 ug/24 h | 12356 ± 3194 ug/24 h | 22268 ± 5067 ug/24 h | up to 22.3 mg | – | – | – | – | – | – | – | – | –
COc1ccccc1Oc1c(NS(=O)(=O)c2ccc(C)cn2)nc(-c2ccncc2)nc1OC [SPP301, 5-methyl-pyridine-2-sulfonic acid [6-methoxy-5-(2-methoxy-phenoxy)-2-pyridin-4-yl-pyrimidin-4-yl]-amide] | – | – | – | – | – | 422 ± 128 ug/24 h | 14213 ± 4658 ug/24 h | 38936 ± 7988 ug/24 h | 38980 ± 9642 ug/24 h | 413 ± 151 ug/24 h | 11824 ± 2343 ug/24 h | 43160 ± 10250 ug/24 h | 37416 ± 16057 ug/24 h | ≤ 39 mg
